Assay results: patent publication US9271961B2, “Bifunctional AKR1C3 inhibitors/androgen receptor modulators and methods of use thereof” (THE TRUSTEES OF THE UNIVERSITY OF PENNSYLVANIA, priority 2011, dated 2016)

Legend:
AKR1C enzymes = assay: Inhibition of AKR1C enzymes (FIG. 20); assay type: biochemical
AKR1C3 [1] = molecular target: T1, AKR1C3 (Homo sapiens (Human), UniProt P42330); assay: Inhibition of NADP+ dependent oxidation of S-tetralol by recombinant AKR1C3; assay type: biochemical; conditions: for IC50: S-tetralol oxidation, substrate at KM
Description: The inhibitory potency of the compounds disclosed herein was determined using purified homogenous recombinant enzymes. Full concentration response studies were conducted and IC50 values calculated using Grafit 5.0 software. The compounds were evaluated for their effects on enzyme catalyzed oxidation of S-tetralol using a 96-well plate format.
The primary screen was also modified to report the following ratio: AKR1C2 IC50 value:AKR1C3 IC50 value. […] When bifunctional AKR1C3 and SARMs are sought the androgen receptor reporter gene assay is moved up in sequence.
Based on this assumption, the screening strategy adopted was to determine the inhibitory potency of each compound against AKR1C2 and AKR1C3 and use the ratio of IC50 value for AKR1C2:IC50 value for AKR1C3 as an index of compound selectivity for AKR1C3. The inhibitory potency of compounds on AKR1C2 and AKR1C3 was determined by measuring the inhibition of the NADP^+ dependent oxidation of S-tetralol.

AKR1C3 [2] = molecular target: T1, AKR1C3; assay: Conversion of Δ4-AD to testosterone in LNCaP cells stably transfected with AKR1C3; assay type: cell-based; conditions: for amount of testosterone formed from Δ4-AD: LNCaP-AKR1C3 cells; for conversion of Δ4-AD to testosterone: LNCaP-AKR1C3 transfected cells, 10 μM
Description: LNCaP cells were stably transfected with AKR1 C3 using the retroviral construct pLNCX-AKR1C3, and its expression was documented using both RT-PCR and immunoblot analysis using an isoform specific monoclonal AKR1C3 antibody (Byrns et al., 2012, J. Steroid Biochem. Mol. Biol. 130:7-15). Metabolism studies of 0.1 μM and 5.0 μM [^14C]-Δ^4-AD were conducted in LNCaP and LNCaP-AKR1C3 cells with the anticipation that the transfected cells would form more testosterone. The bulk of the metabolites formed in LNCaP cells were found in the aqueous phase. When this phase was treated with β-glucuronidase (200 units/mL at pH 6.6) and re-extracted, androsterone was the predominate metabolite released into the organic soluble fraction providing evidence for the formation of androsterone-3α-glucuronide. When LNCaP-AKR1C3 transfected cells were used, the bulk of the metabolites were again found in the aqueous phase. However, β-glucuronidase treatment of the aqueous phase yielded both androsterone and testosterone, providing evidence for testosterone formation by these cells.
Tertiary screens of the compounds of interest include: (a) inhibition of the conversion of Δ^4-AD to testosterone in LNCaP (AR dependent prostate cancer) cells stably transfected with AKR1C3; (b) inhibition of Δ^4-AD mediated cell proliferation in LNCaP cells stably transfected with AKR1C3; and (c) inhibition of growth of castrate resistant prostate cancer cells in culture.

AKR1C3 [3] = molecular target: T1, AKR1C3; assay: Inhibition of AKR1C3 catalyzed reduction of Δ4-androstene-3,17-dione to testosterone; assay type: biochemical
Text: Compounds may be evaluated as selective reversible inhibitors of AKR1C3 by screening them against homogeneous recombinant AKR1C1-AKR1C4 expressed in E. coli. […] IC50 values are generated using steroid concentrations at KM.
The primary screen was also modified to report the following ratio: AKR1C2 IC50 value:AKR1C3 IC50 value. A high ratio reflects a high selectivity for AKR1C3 and data are used to generate heat-maps, FIG. 14. This method is preferred to measuring percent inhibition using a single concentration of 1.0 μM inhibitor, since this single point method is prone to identifying false positives. […] The leads may then be moved into secondary in vitro screens (complete screen against all human AKR isoforms; COX-1 and COX-2; and other relevant human 17β-HSD isoforms); tertiary screens using cell-based assays (inhibition of AKR1C3 mediated testosterone production and AKR1C3 mediated cell proliferation in prostate cancer cell lines; and modulation of the androgen receptor in reporter gene assays); and quaternary screens in xenograft models of CRPC. When bifunctional AKR1C3 and SARMs are sought the androgen receptor reporter gene assay is moved up in sequence.

[4] = molecular target: aldose reductase (AKR1B1) (Homo sapiens (Human), UniProt P15121); assay: Secondary screen against aldose reductase; assay type: biochemical
[5] = molecular target: retinal reductase (AKR1B10) (Homo sapiens (Human), UniProt O60218); assay: Secondary screen against retinal reductase; assay type: biochemical
COX-1 = COX-1 (Homo sapiens (Human), UniProt P23219); assay: Screen against COX-1; assay type: biochemical
COX-2 = COX-2 (Homo sapiens (Human), UniProt P35354); assay: Screen against COX-2; assay type: biochemical
[6] = system: prostatic specific antigen (PSA) gene expression; assay: AR regulated PSA gene expression in LNCaP cells; assay type: cell-based; conditions: 10-30 μM, presence and absence of 5α-DHT (0.1-1.0 nM)
AR [7] = molecular target: T2, AR (Homo sapiens (Human), UniProt P10275); assay: AR stability / degradation in Hela cells; assay type: cell-based; conditions: 10-40 μM, presence and absence of 0.1 nM 5α-DHT
[8] = system: mutated AR and PSA expression; assay: Mutated AR levels and PSA expression in LNCaP-AKR1C3 cells; assay type: cell-based; conditions: presence of either 1.0 nM 5α-DHT or 100 nM Δ4-AD
AR [9] = molecular target: T2, AR; assay: AR nuclear translocation from the cytosol in HeLa 13 cells; conditions: presence of DHT
Description: AR LE and AR SE=long and short exposure to detect cytoplasmic AR. β-tubulin was used as a loading control.

“4-chloro-N-phenylanthranilate [reference compound]” was tested, and the “inhibition of AKR1C enzymes” value (AKR1C enzymes) was “inhibits”.
`O=C(O)c1ccccc1Nc1cccc(C(F)(F)F)c1` [Compound 1, Flufenamic Acid, reference compound] was tested, and the IC50 (AKR1C3 [1]) was 50 nM.
For `O=C(O)c1cccc(Nc2ccccc2)c1` [Compound 3, 3-Phenylamino benzoic acid], the IC50 (AKR1C3 [1]) was 940 nM.
For `O=C(O)c1cccc(Nc2ccc([N+](=O)[O-])cc2)c1` [Compound 5, 3-[N-(4-nitrophenyl)amino]benzoic acid], the “AKR1C3 inhibitory potency (in words)” value (AKR1C3 [1]) was “low nanomolar range” and the IC50 (AKR1C3 [1]) was 36 nM.
With `O=C(O)c1cccc(Nc2ccc(C(F)(F)F)cc2)c1` [Compound 7, 3-[N-(4-Trifluoromethylphenyl)amino]benzoic acid] the “amount of testosterone formed from Δ4-AD” value (AKR1C3 [2]) was “significant decline”.
For `O=C(O)c1cccc(Nc2ccc(Cl)cc2)c1` [Compound 8, 3-[N-(4-Chlorophenyl)amino]benzoic acid], the “conversion of Δ4-AD to testosterone” value (AKR1C3 [2]) was “completely blocked”.
`O=C(O)c1cccc(Nc2ccc([N+](=O)[O-])c3ccccc23)c1` [Compound 13, 3-((4-nitronaphthalen-1-yl)amino)benzoic acid] was tested, and the “slope factor of the inhibition dose-response curve” value (AKR1C3 [1]; AKR1C3) was “approximately two”, the Ki (AKR1C3 [1]; S-tetralol as substrate) was 58.2 nM and the “pattern of inhibition of AKR1C3” value (AKR1C3 [1]; S-tetralol as substrate, E.NADP+.S-tetralol complex) was “competitive inhibition”. The IC50 (AKR1C3 [1]) was 75 nM, the “pattern of inhibition of AKR1C3” value (AKR1C3 [3]; Δ4-AD as substrate, E.NADPH.Δ4-AD complex) was “competitive inhibition” and the Ki (AKR1C3 [3]; Δ4-androstene-3,17-dione as substrate) was 2470 nM. For the same compound, the “amount of testosterone formed from Δ4-AD” value (AKR1C3 [2]) was “significant decline”, the “conversion of Δ4-AD to testosterone” value (AKR1C3 [2]) was “completely blocked” and the “inhibition of aldose reductase (AKR1B1)” value [4] was “failed to inhibit”. For the same compound, the “inhibition of retinal reductase (AKR1B10)” value [5] was “failed to inhibit”, the “inhibition of COX-1” value (COX-1) was “failed to inhibit” and the “inhibition of COX-2” value (COX-2) was “failed to inhibit”. The “expression of PSA” value [6] was “block the expression of PSA”, the “degradation of the AR” value (AR [7]) was “dose-dependent degradation” and the “expression of the mutated AR and PSA” value [8] was “decrease”. For the same compound, the “cytoplasmic AR (prevention of nuclear localization of the AR)” value (AR [9]) was “dose dependent increase in cytoplasmic AR”.
